Measurements as given in PubChem BioAssay (NCI).
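These data come from cells grown in 96-well plates and exposed to compound for 48 hours at five concentrations. The concentration for full growth arrest is given as TGI.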 Where a SMILES comes first, the peptide text is derived from it. [ ]: non-standard residue; d: D form. The star is where a group is joined. Octanoyl = CCCCCCCC(=O)*; Aib = CC(C)(N)C(=O)O; tBu = CC(C)(C)*

How the values were obtained:
Assay in all cases: inhibition of tumour cell growth, NCI panel, 48 h
M14 melanoma = test system: M14 melanoma
OVCAR-5 ovarian = test system: OVCAR-5 ovarian
OVCAR-3 ovarian = test system: OVCAR-3 ovarian
OVCAR-4 ovarian = test system: OVCAR-4 ovarian
SF-539 CNS = test system: SF-539 CNS
HL-60(TB) leukemia = test system: HL-60(TB) leukemia
HCC-2998 colon = test system: HCC-2998 colon
A498 renal = test system: A498 renal
KM12 colon = test system: KM12 colon
MOLT-4 leukemia = test system: MOLT-4 leukemia
SW-620 colon = test system: SW-620 colon
DU-145 prostate = test system: DU-145 prostate
HT29 colon = test system: HT29 colon
HOP-92 NSCLC = test system: HOP-92 NSCLC
HCT-116 colon = test system: HCT-116 colon
RXF 393 renal = test system: RXF 393 renal
MDA-MB-435 = test system: MDA-MB-435
U251 CNS = test system: U251 CNS
PC-3 prostate = test system: PC-3 prostate

Row | Compound | TGI (M14 melanoma) [µM] | TGI (OVCAR-5 ovarian) [µM] | TGI (OVCAR-3 ovarian) [µM] | TGI (OVCAR-4 ovarian) [µM] | TGI (SF-539 CNS) [µM] | TGI (HL-60(TB) leukemia) [µM] | TGI (HCC-2998 colon) [µM] | TGI (A498 renal) [µM] | TGI (KM12 colon) [µM] | TGI (MOLT-4 leukemia) [µM] | TGI (SW-620 colon) [µM] | TGI (DU-145 prostate) [µM] | TGI (HT29 colon) [µM] | TGI (HOP-92 NSCLC) [µM] | TGI (HCT-116 colon) [µM] | TGI (RXF 393 renal) [µM] | TGI (MDA-MB-435) [µM] | TGI (U251 CNS) [µM] | TGI (PC-3 prostate) [µM]
1 | O=C1C=C(NCCc2cc(Br)c(O)c(Br)c2)C(=O)c2ncccc21 | 2.7 | 3.95 | 6.88 | 11.3 | 2.52 | 16.1 | 18.5 | 6.78 | 23.4 | 21.9 | 8.6 | 2.99 | 7.36 | 25.6 | 11.8 | 13.4 | 0.723 | 20 | 27.1
2 | CCOC(=O)CCC(NC(=O)c1ccc(OCc2nc3ccccc3n3cccc23)cc1)C(=O)OCC (configuration not stated) | > 100 | > 100 | > 100 | > 100 | > 100 | > 100 | > 100 | > 100 | > 100 | > 100 | > 100 | > 100 | > 100 | > 100 | > 100 | > 100 | > 100 | > 100 | > 100
3 | CCOP(=O)(C=C=C(C)C)OCC | > 100 | > 100 | > 100 | > 100 | > 100 | > 100 | > 100 | > 100 | > 100 |  | > 100 | > 100 | > 100 | > 100 | > 100 | > 100 | > 100 | > 100 | > 100
4 | COc1cc2c(c3c1c(=O)c1ccccc1n3C)C=CC1(CCCCC1)O2 | 7.92 | > 10 | > 10 | > 10 | > 7.22 | > 10 | > 10 | > 9.61 | > 2.21 | > 10 | > 10 | > 10 | > 10 | 9.77 | > 10 | 2.98 | 6.42 | > 10 | > 10
5 | CN(CCCCN(C)CCc1ccc(Cl)c(Cl)c1)CCCCN1CCCC1 | 2.16 | 5.54 | 4.34 | 3.66 |  | 3.97 | 0.384 | 3.14 | 1.92 |  | 3.02 | 8.92 | 1.88 | 2.95 | 2.93 | 3.03 | 0.904 | 1.97 | 4.52
6 | O=C(NCCO)Nc1c(C(F)(F)F)cc(-c2ccccc2)[nH]c1=O | > 100 | > 100 | > 100 | > 100 |  | > 100 | > 100 | > 100 | > 100 | > 100 | > 100 | > 100 | > 100 | > 100 | > 100 | > 100 | > 100 | > 100 | > 100
7 | CN(C)c1ccc(/C=C(\NC(=O)c2ccccc2)C2NC(Cc3c[nH]c4ccccc34)C(=O)O2)cc1 (configuration not stated) | > 100 | > 100 | > 100 | > 100 |  | 39.9 | > 100 | > 100 | > 100 | > 100 | > 100 | > 100 | > 100 | > 69.3 | > 100 | > 100 | > 100 | > 100 | > 100
8 | S=C(S)N1CCN(c2ccc(Cl)c(Cl)c2)CC1 | 40.7 | > 100 | 50 |  | 59.4 | 44.3 | 36.6 | 44.2 | 34.5 |  | 52.9 | 57 | 49.3 | 75.3 | 29.5 | > 100 | 37.4 | 90.7 | 46.9
9 | O=C(O)CC/C(=N\Nc1nsc2ccccc12)c1ccc(Cl)cc1 | > 65.8 | > 100 | 47.2 | > 80.2 | > 89.8 | 59.9 | 36.8 | 99.4 | > 100 | 73.5 | > 87.8 | > 100 | > 78.1 | > 100 | 68.9 | > 53.7 | 75.3 | 82.4 | > 100
10 | CCCCCCCC(=O)NC(C)(C)C(=O)NC(COC(C)(C)C)C(=O)NC(CC(C)C)C(=O)NC(C)(C)C(=O)NC(COC(C)(C)C)C(=O)NC(COC(C)(C)C)C(=O)NC(CC(C)C)C(=O)NC(C)(C)C(=O)NC(COC(C)(C)C)C(=O)NC(C(=O)NC(CC(C)C)C(=O)OC)C(C)CC (configuration not stated) (Octanoyl-[Aib]S(tBu)L[Aib]S(tBu)S(tBu)L[Aib]S(tBu)IL-OMe; configuration not given here) | > 25 | 22.3 | 10.9 | > 25 | > 25 | 15.6 |  | 14 | 22 | > 25 | > 25 | > 25 | 11.9 | 10.6 | > 25 | 9.99 | > 25 | 12.8 | 9.36
11 | O=C(Cc1ccc(Cl)c(Cl)c1)N(CCc1ccc(Cl)c(Cl)c1)CCN1CCCC1 | 3.56 | 3.48 | 5.47 | 5.28 | 3.31 | 3.35 | 3.33 | 3.45 | 3.67 | 2.98 |  | 4.59 | 3.56 | 4.74 | 3.09 | 3.34 | 3.38 | 3.15 | 3.77
12 | CCOC(=O)C1=c2[nH]c3cccc4cccc(c43)n2C=C(C(C)=O)C1CC(C)=O (configuration not stated) | > 100 | > 100 | > 100 | > 100 |  | 59.2 | > 100 | > 100 | > 100 | > 100 | > 100 | > 100 |  | > 100 | > 100 | > 100 | > 100 | > 100 | > 100
